Data: patent publication US8846601B2, “Melanocortin receptor-specific peptides” (Palatin Technologies, Inc., priority 2009, dated 2014)
Peptide text beside a SMILES is read from it.

Biological target: hMC4-R (Homo sapiens (Human), UniProt P32245)
Experiment: Competitive binding assay using Eu-NDP-α-MSH (TRF), hMC4-R membranes
Conditions: averaged; Eu-NDP-α-MSH (values marked *); read-out: MC4-R Ki
Protocol: Alternatively, a competitive inhibition binding assay was performed employing Eu-NDP-α-MSH (PerkinElmer Life Sciences catalog No. AD0225) with determination by time-resolved fluorometry (TRF) of the lanthanide chelate. […] After incubation for 90 minutes at 37° C., the reaction was stopped by filtration over AcroWell 96-well filter plates (Pall Life Sciences). The filter plates were washed 4 times with 200 μL of ice-cold phosphate-buffered saline. DELFIA Enhancement solution (PerkinElmer Life Sciences) was added to each well. […] Each assay was conducted in duplicate and mean values were utilized. Ki values were determined by curve-fitting with Graph-Pad Prism® software using a one-site fixed-slope competition binding model.

Sequence of hMC4-R (P32245 whole entry): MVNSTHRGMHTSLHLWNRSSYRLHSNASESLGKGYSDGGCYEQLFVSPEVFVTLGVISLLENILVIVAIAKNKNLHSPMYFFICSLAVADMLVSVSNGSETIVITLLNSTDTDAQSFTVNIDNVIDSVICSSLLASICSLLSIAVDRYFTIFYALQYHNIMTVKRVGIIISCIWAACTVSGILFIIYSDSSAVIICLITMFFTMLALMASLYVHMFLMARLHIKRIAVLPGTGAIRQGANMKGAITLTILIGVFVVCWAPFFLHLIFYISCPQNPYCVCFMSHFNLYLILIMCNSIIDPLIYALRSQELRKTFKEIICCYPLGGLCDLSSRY

`CC(=O)N[C@@H](CCCNC(=N)N)C(=O)N[C@H]1CC(=O)NCCCC[C@@H](C(N)=O)NC(=O)[C@H](Cc2c[nH]c3ccccc23)NC(=O)[C@H](CCCCN)NC(=O)[C@@H](Cc2ccccc2)NC(=O)[C@H](Cc2c[nH]cn2)NC1=O` [compound 6, Ac-Arg-cyclo(Asp-His- D-Phe-Lys-Trp-Lys)- NH2] (HELM PEPTIDE1{[ac].R.D.H.[dF].K.W.K.[am]}$PEPTIDE1,PEPTIDE1,3:R3-8:R3$$$V2.0) showed a Ki of 533 nM.
Work on `CC(=O)N[C@@H](CCCNC(=N)N)C(=O)N[C@H]1CC(=O)NCCCC[C@@H](C(N)=O)NC(=O)[C@H](Cc2c[nH]c3ccccc23)NC(=O)[C@H](CCCCN)NC(=O)[C@@H](Cc2ccccc2)NC(=O)[C@H](CCCCN)NC1=O` [compound 7, Ac-Arg-cyclo(Asp-Lys- D-Phe-Lys-Trp-Lys)- NH2] (HELM PEPTIDE1{[ac].R.D.K.[dF].K.W.K.[am]}$PEPTIDE1,PEPTIDE1,3:R3-8:R3$$$V2.0) yielded a Ki of 2960 nM.
Work on `CC(=O)N[C@@H](CCCNC(=N)N)C(=O)N[C@H]1CC(=O)NCCCC[C@@H](C(N)=O)NC(=O)[C@H](Cc2c[nH]c3ccccc23)NC(=O)[C@H](CCCCN)NC(=O)[C@@H](Cc2ccccc2)NC(=O)[C@H](C)NC1=O` [compound 8, Ac-Arg-cyclo(Asp-Ala- D-Phe-Lys-Trp-Lys)- NH2] (HELM PEPTIDE1{[ac].R.D.A.[dF].K.W.K.[am]}$PEPTIDE1,PEPTIDE1,3:R3-8:R3$$$V2.0) yielded a Ki of 3020 nM.
`CC(=O)N[C@@H](CCCNC(=N)N)C(=O)N[C@H]1CC(=O)NCCCC[C@@H](C(N)=O)NC(=O)[C@H](Cc2c[nH]c3ccccc23)NC(=O)[C@H](CCCNC(=N)N)NC(=O)[C@@H](Cc2ccccc2)NC(=O)[C@H](Cc2ccc(O)cc2)NC1=O` [compound 11, Ac-Arg-cyclo(Asp-Tyr- D-Phe-Arg-Trp-Lys)- NH2] (HELM PEPTIDE1{[ac].R.D.Y.[dF].R.W.K.[am]}$PEPTIDE1,PEPTIDE1,3:R3-8:R3$$$V2.0) was tested, and the Ki was 43 nM.
Work on `CC(=O)N[C@@H](CCCNC(=N)N)C(=O)N[C@H]1CC(=O)NCCCC[C@@H](C(N)=O)NC(=O)[C@H](Cc2c[nH]c3ccccc23)NC(=O)[C@H](CCCNC(=N)N)NC(=O)[C@@H](Cc2ccccc2)NC(=O)[C@H](CC(C)C)NC1=O` [compound 12, Ac-Arg-cyclo(Asp-Leu- D-Phe-Arg-Trp-Lys)- NH2] (HELM PEPTIDE1{[ac].R.D.L.[dF].R.W.K.[am]}$PEPTIDE1,PEPTIDE1,3:R3-8:R3$$$V2.0) yielded a Ki of 33 nM.
`CC(=O)N[C@@H](CCCNC(=N)N)C(=O)N[C@H]1CC(=O)NCCCC[C@@H](C(N)=O)NC(=O)[C@H](Cc2c[nH]c3ccccc23)NC(=O)[C@H](CCCNC(=N)N)NC(=O)[C@@H](Cc2ccccc2)NC(=O)[C@@H]2C[C@@H](OCc3ccccc3)CN2C1=O` [compound 15, Ac-Arg-cyclo(Asp- Hyp(Bzl)-D-Phe-Arg- Trp-Lys)-NH2] gave a Ki of 0.7 nM.
Work on `CC(=O)N[C@@H](CCCNC(=N)N)C(=O)N[C@H]1CC(=O)NCCCC[C@@H](C(N)=O)NC(=O)[C@H](Cc2c[nH]c3ccccc23)NC(=O)[C@H](CCCNC(=N)N)NC(=O)[C@@H](Cc2ccccc2)NC(=O)[C@@H]2C[C@@H](Cc3ccccc3)CN2C1=O` [compound 18, Ac-Arg-cyclo(Asp- Pro(4R-Bzl)-D-Phe-Arg- Trp-Lys)-NH2] yielded a Ki of 3 nM.
`CC(=O)N[C@@H](CCCNC(=N)N)C(=O)N[C@H]1CC(=O)NCCCC[C@@H](C(N)=O)NC(=O)[C@H](Cc2c[nH]c3ccccc23)NC(=O)[C@H](CCCNC(=N)N)NC(=O)[C@@H](Cc2ccccc2)NC(=O)[C@H](CCCNC(=N)N)NC1=O` [compound 28, Ac-Arg-cyclo(Asp-Arg- D-Phe-Arg-Trp-Lys)- NH2] gave a Ki of 4 nM.
In the case of `CC[C@H](C)[C@@H]1NC(=O)[C@@H](NC(=O)[C@H](CCCNC(=N)N)NC(C)=O)CC(=O)NCCCC[C@@H](C(N)=O)NC(=O)[C@H](Cc2c[nH]c3ccccc23)NC(=O)[C@H](CCCNC(=N)N)NC(=O)[C@@H](Cc2ccccc2)NC1=O` [compound 34, Ac-Arg-cyclo(Asp-Ile-D- Phe-Arg-Trp-Lys)-NH2] (HELM PEPTIDE1{[ac].R.D.I.[dF].R.W.K.[am]}$PEPTIDE1,PEPTIDE1,3:R3-8:R3$$$V2.0), the Ki is reported as 19 nM.
`CC(=O)N[C@@H](CCCNC(=N)N)C(=O)N[C@H]1CC(=O)NCCCC[C@@H](C(N)=O)NC(=O)[C@H](Cc2c[nH]c3ccccc23)NC(=O)[C@H](CCCNC(=N)N)NC(=O)[C@@H](Cc2ccccc2)NC(=O)[C@H]([C@@H](C)O)NC1=O` [compound 35, Ac-Arg-cyclo(Asp-Thr- D-Phe-Arg-Trp-Lys)- NH2] (HELM PEPTIDE1{[ac].R.D.T.[dF].R.W.K.[am]}$PEPTIDE1,PEPTIDE1,3:R3-8:R3$$$V2.0) was tested, and the Ki was 140 nM.
With `CSCC[C@@H]1NC(=O)[C@@H](NC(=O)[C@H](CCCNC(=N)N)NC(C)=O)CC(=O)NCCCC[C@@H](C(N)=O)NC(=O)[C@H](Cc2c[nH]c3ccccc23)NC(=O)[C@H](CCCNC(=N)N)NC(=O)[C@@H](Cc2ccccc2)NC1=O` [compound 38, Ac-Arg-cyclo(Asp-Met- D-Phe-Arg-Trp-Lys)- NH2] (HELM PEPTIDE1{[ac].R.D.M.[dF].R.W.K.[am]}$PEPTIDE1,PEPTIDE1,3:R3-8:R3$$$V2.0) the Ki was 35 nM.
In the case of `CC(=O)N[C@@H](CCCNC(=N)N)C(=O)N[C@H]1CC(=O)NCCCC[C@@H](C(N)=O)NC(=O)[C@H](Cc2c[nH]c3ccccc23)NC(=O)[C@H](CCCNC(=N)N)NC(=O)[C@@](C)(Cc2ccccc2)NC(=O)[C@H](Cc2c[nH]cn2)NC1=O` [compound 60, Ac-Arg-cyclo(Asp-His- D-(alpha-Me)Phe-Arg- Trp-Lys)-NH2], the Ki is reported as 47 nM.
Compound `CC(=O)N[C@@H](CCCNC(=N)N)C(=O)N[C@H]1CC(=O)NCCCC[C@@H](C(N)=O)NC(=O)[C@H](Cc2c[nH]c3ccccc23)NC(=O)[C@H](CCCNC(=N)N)NC(=O)[C@@H](Cc2ccccc2)NC(=O)[C@H](CN)NC1=O` [compound 62, Ac-Arg-cyclo(Asp-Dap- D-Phe-Arg-Trp-Lys)- NH2] has a Ki of 80 nM.
In the case of `CC(=O)N[C@H](CCCNC(=N)N)C(=O)N[C@H]1CC(=O)NCCCC[C@@H](C(N)=O)NC(=O)[C@H](Cc2c[nH]c3ccccc23)NC(=O)[C@H](CCCNC(=N)N)NC(=O)[C@@H](Cc2ccccc2)NC(=O)[C@H](C)NC1=O` [compound 70, Ac-D-Arg-cyclo(Asp- Ala-D-Phe-Arg-Trp- Lys)-NH2], the Ki is reported as 46 nM.
Compound `CC(=O)N[C@H](CCCNC(=N)N)C(=O)N[C@H]1CC(=O)NCCCC[C@@H](C(N)=O)NC(=O)[C@H](Cc2c[nH]c3ccccc23)NC(=O)[C@H](CCCNC(=N)N)NC(=O)[C@@H](Cc2ccccc2)NC(=O)[C@@H]2C[C@@H](Cc3ccccc3)CN2C1=O` [compound 72, Ac-D-Arg-cyclo(Asp- Pro(4R-Bzl)-D-Phe-Arg- Trp-Lys)-NH2] has a Ki of 2 nM.
`CC(=O)N[C@@H](CCCNC(=N)N)C(=O)N[C@H]1CC(=O)NCCCC[C@@H](C(=O)O)NC(=O)[C@H](Cc2c[nH]c3ccccc23)NC(=O)[C@H](CCCNC(=N)N)NC(=O)[C@@H](Cc2ccccc2)NC(=O)[C@H](CCCNC(=N)N)NC1=O` [compound 73, Ac-Arg-cyclo(Asp-Arg- D-Phe-Arg-Trp-Lys)-OH] gave a Ki of 60 nM.
In the case of `CC(=O)N[C@H](CCCNC(=N)N)C(=O)N[C@H]1CCC(=O)NCCC[C@@H](C(=O)O)NC(=O)[C@H](Cc2c[nH]c3ccccc23)NC(=O)[C@H](CCCNC(=N)N)NC(=O)[C@@H](Cc2ccccc2)NC(=O)[C@H](Cc2c[nH]cn2)NC1=O` [compound 85, Ac-D-Arg-cyclo(Glu- His-D-Phe-Arg-Trp- Orn)-OH] (HELM PEPTIDE1{[ac].[dR].E.H.[dF].R.W.[Orn]}$PEPTIDE1,PEPTIDE1,3:R3-8:R3$$$V2.0), the Ki is reported as 40 nM.
Work on `CC(=O)N[C@@H](CCCNC(=N)N)C(=O)N[C@H]1CCC(=O)NCCC[C@@H](C(=O)O)NC(=O)[C@H](Cc2c[nH]c3ccccc23)NC(=O)[C@H](CCCNC(=N)N)NC(=O)[C@@H](Cc2ccccc2)NC(=O)[C@H](CCCCN)NC1=O` [compound 89, Ac-Arg-cyclo(Glu-Lys- D-Phe-Arg-Trp-Orn)- OH] (HELM PEPTIDE1{[ac].R.E.K.[dF].R.W.[Orn]}$PEPTIDE1,PEPTIDE1,3:R3-8:R3$$$V2.0) yielded a Ki of 113 nM.
`CC(=O)N[C@@H](CCCNC(=N)N)C(=O)N[C@H]1CCCCNC(=O)C[C@@H](C(N)=O)NC(=O)[C@H](Cc2c[nH]c3ccccc23)NC(=O)[C@H](CCCNC(=N)N)NC(=O)[C@@H](Cc2ccccc2)NC(=O)[C@H](Cc2c[nH]cn2)NC1=O` [compound 96, Ac-Arg-cyclo(Lys-His- D-Phe-Arg-Trp-Asp)- NH2] (HELM PEPTIDE1{[ac].R.K.H.[dF].R.W.D.[am]}$PEPTIDE1,PEPTIDE1,3:R3-8:R3$$$V2.0; bridges inferred) gave a Ki of 1 nM.
`CCNC(=O)[C@@H]1CCCNC(=O)CC[C@H](NC(=O)[C@H](CCCNC(=N)N)NC(C)=O)C(=O)N[C@@H](Cc2c[nH]cn2)C(=O)N[C@H](Cc2ccccc2)C(=O)N[C@@H](CCCNC(=N)N)C(=O)N[C@@H](Cc2c[nH]c3ccccc23)C(=O)N1` [compound 109, Ac-Arg-cyclo(Glu-His- D-Phe-Arg-Trp-Orn)- NH-Et] (HELM PEPTIDE1{[ac].R.E.H.[dF].R.W.[Orn].[CCN[*:1]]}$PEPTIDE1,PEPTIDE1,3:R3-8:R3$$$V2.0) was tested, and the Ki was 6 nM.
`CC(=O)N[C@@H](CCCNC(=N)N)C(=O)N[C@H]1CCC(=O)NCCC[C@@H](C(=O)NC2CC2)NC(=O)[C@H](Cc2c[nH]c3ccccc23)NC(=O)[C@H](CCCNC(=N)N)NC(=O)[C@@H](Cc2ccccc2)NC(=O)[C@H](Cc2c[nH]cn2)NC1=O` [compound 110, Ac-Arg-cyclo(Glu-His- D-Phe-Arg-Trp-Orn)- NH-cyclopropyl] (HELM PEPTIDE1{[ac].R.E.H.[dF].R.W.[Orn].[C1CC1N[*:1]]}$PEPTIDE1,PEPTIDE1,3:R3-8:R3$$$V2.0) showed a Ki of 1 nM.
`CC(=O)NC[C@@H]1NC(=O)[C@@H](NC(=O)[C@H](CCCNC(=N)N)NC(C)=O)CC(=O)NCCCC[C@@H](C(N)=O)NC(=O)[C@H](Cc2c[nH]c3ccccc23)NC(=O)[C@H](CCCNC(=N)N)NC(=O)[C@@H](Cc2ccccc2)NC1=O` [compound 114, Ac-Arg-cyclo(Asp- Dab(Acetyl)-D-Phe-Arg- Trp-Lys)-NH2] gave a Ki of 88 nM.
